# Residues, ends and D or L forms follow the SMILES beside them.
# Legend:
# [1] = ref [29], [30]; cited from earlier work
# WT GLP-2R = biological target: T1, WT GLP-2R (Homo sapiens, UniProt O95838); test: GLP-2R signaling assay, cAMP measurements; assay type: cell-based
# T1 sequence (O95838 1-553): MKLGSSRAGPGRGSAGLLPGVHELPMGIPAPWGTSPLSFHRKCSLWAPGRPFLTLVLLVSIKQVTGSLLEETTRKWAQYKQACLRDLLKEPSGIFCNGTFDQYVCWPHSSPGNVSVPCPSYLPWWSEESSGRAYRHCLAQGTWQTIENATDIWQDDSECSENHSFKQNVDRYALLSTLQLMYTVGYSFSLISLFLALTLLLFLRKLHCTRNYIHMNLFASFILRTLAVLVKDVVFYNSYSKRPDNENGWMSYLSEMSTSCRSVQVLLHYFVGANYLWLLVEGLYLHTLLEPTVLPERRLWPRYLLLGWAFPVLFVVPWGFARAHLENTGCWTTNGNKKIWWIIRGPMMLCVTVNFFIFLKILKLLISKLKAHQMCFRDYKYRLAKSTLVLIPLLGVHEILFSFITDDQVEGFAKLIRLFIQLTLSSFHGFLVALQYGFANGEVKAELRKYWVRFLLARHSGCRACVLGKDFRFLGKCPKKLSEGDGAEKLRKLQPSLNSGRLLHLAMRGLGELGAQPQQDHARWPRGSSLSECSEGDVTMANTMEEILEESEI
SMILES,"half-life, whole body metabolism in vivo [1] [min]",EC50 (WT GLP-2R) [nM]
"CC[C@H](C)[C@H](NC(=O)[C@H](Cc1ccccc1)NC(=O)[C@H](CCC(=O)O)NC(=O)[C@H](CCCCN)NC(=O)[C@H](C)NC(=O)[C@H](C)NC(=O)[C@H](CCC(N)=O)NC(=O)CNC(=O)[C@H](CCC(=O)O)NC(=O)[C@H](CC(C)C)NC(=O)[C@H](Cc1ccc(O)cc1)NC(=O)[C@H](CO)NC(=O)[C@H](CO)NC(=O)[C@@H](NC(=O)[C@H](CC(=O)O)NC(=O)[C@H](CO)NC(=O)[C@@H](NC(=O)[C@H](Cc1ccccc1)NC(=O)[C@@H](NC(=O)CNC(=O)[C@H](CCC(=O)O)NC(=O)[C@H](C)NC(=O)[C@@H](N)Cc1c[nH]cn1)[C@@H](C)O)[C@@H](C)O)C(C)C)C(=O)N[C@@H](C)C(=O)N[C@@H](Cc1c[nH]c2ccccc12)C(=O)N[C@@H](CC(C)C)C(=O)N[C@H](C(=O)N[C@@H](CCCCN)C(=O)NCC(=O)N[C@@H](CCCN=C(N)N)C(=O)NCC(=O)O)C(C)C [GLP-1, glucagon-like peptide 1]",1 to 2,–
CC[C@H](C)[C@H](NC(=O)[C@H](Cc1ccccc1)NC(=O)[C@H](CC(=O)O)NC(=O)[C@H](CCCNC(=N)N)NC(=O)[C@H](C)NC(=O)[C@H](C)NC(=O)[C@H](CC(C)C)NC(=O)[C@H](CC(N)=O)NC(=O)[C@H](CC(=O)O)NC(=O)[C@H](CC(C)C)NC(=O)[C@@H](NC(=O)[C@@H](NC(=O)[C@H](CC(N)=O)NC(=O)[C@H](CCSC)NC(=O)[C@H](CCC(=O)O)NC(=O)[C@H](CC(=O)O)NC(=O)[C@H](CO)NC(=O)[C@H](Cc1ccccc1)NC(=O)[C@H](CO)NC(=O)CNC(=O)[C@H](CC(=O)O)NC(=O)[C@H](CO)NC(=O)[C@@H](N)Cc1c[nH]cn1)[C@@H](C)O)[C@@H](C)CC)C(=O)N[C@@H](CC(N)=O)C(=O)N[C@@H](Cc1c[nH]c2ccccc12)C(=O)N[C@@H](CC(C)C)C(=O)N[C@H](C(=O)N[C@@H](CCC(N)=O)C(=O)N[C@H](C(=O)N[C@@H](CCCCN)C(=O)N[C@H](C(=O)N[C@H](C(=O)N[C@@H](CC(=O)O)C(=O)O)[C@@H](C)O)[C@@H](C)CC)[C@@H](C)O)[C@@H](C)CC [GLP-2 Ser2] (H-HSDGSFSDEMNTILDNLAARDFINWLIQTKITD-OH),–,0.265
"CC[C@H](C)[C@H](NC(=O)[C@H](Cc1ccccc1)NC(=O)[C@H](CC(=O)O)NC(=O)[C@H](CCCN=C(N)N)NC(=O)[C@H](C)NC(=O)[C@H](C)NC(=O)[C@H](CC(C)C)NC(=O)[C@H](CC(N)=O)NC(=O)[C@H](CC(=O)O)NC(=O)[C@H](CC(C)C)NC(=O)[C@@H](NC(=O)[C@@H](NC(=O)[C@H](CC(N)=O)NC(=O)[C@H](CCSC)NC(=O)[C@H](CCC(=O)O)NC(=O)[C@H](CC(=O)O)NC(=O)[C@H](CO)NC(=O)[C@H](Cc1ccccc1)NC(=O)[C@H](CO)NC(=O)CNC(=O)[C@H](CC(=O)O)NC(=O)[C@H](C)NC(=O)[C@@H](N)Cc1cnc[nH]1)[C@@H](C)O)[C@@H](C)CC)C(=O)N[C@@H](CC(N)=O)C(=O)N[C@@H](Cc1c[nH]c2ccccc12)C(=O)N[C@@H](CC(C)C)C(=O)N[C@H](C(=O)N[C@@H](CCC(N)=O)C(=O)N[C@H](C(=O)N[C@@H](CCCCN)C(=O)N[C@H](C(=O)N[C@H](C(=O)N[C@@H](CC(=O)O)C(=O)O)[C@@H](C)O)[C@@H](C)CC)[C@@H](C)O)[C@@H](C)CC [GLP-2, glucagon-like peptide 2]",7,–

# Source: doi:10.1101/2023.03.20.532734v1 (bioRxiv, 2023)
